This note sets out measurements from ChEMBL document CHEMBL1134948, “The antimicrobial natural product chuangxinmycin and some synthetic analogues are potent and selective inhibitors of bacterial tryptophanyl tRNA synthetase” (Bioorg Med Chem Lett, 2002).

Test [1] concerns Haemophilus influenzae. Kind of test: Minimum inhibitory concentration against Haemophilus influenzae Q1. The class given is functional.
The test system of test [2] is Staphylococcus aureus. The experiment in a line: Minimum inhibitory concentration against Staphylococcus aureus oxford. Format: functional.
The test system of test [3] is Moraxella catarrhalis. Kind of test: Minimum inhibitory concentration against Moraxella catarrhalis 1502. Format: functional.
Test [4] is described as follows: Compound was tested for inhibitory activity against tryptophanyl tRNA synthetase in Staphylococcus aureus. The class given is nucleic-acid assay.
Test [5] has as its system Nucleic Acid. The experiment in a line: Compound was tested for inhibitory activity against tryptophanyl tRNA synthetase in Staphylococcus aureus; NI means no inhibition uM. Format: nucleic-acid assay.
Test [6] relates to Nucleic Acid. Kind of test: Compound was tested for inhibitory activity against tryptophanyl tRNA synthetase in Staphylococcus aureus Oxford; No significant inhibition up to 20 uM concentration. Format: nucleic-acid assay.
The target of test [7] is Nucleic Acid. The experiment in a line: Binding affinity against Tryptophanyl tRNA synthetase was determined. The class given is nucleic-acid assay, Staphylococcus aureus.
Test [8] relates to Haemophilus influenzae. Kind of test: Minimum inhibitory concentration against Haemophilus influenzae Q1 at a concentration of 32 ug/mL. The class given is functional, organism-based.
The subject of test [9] is Moraxella catarrhalis. The experiment in a line: Minimum inhibitory concentration against Moraxella catarrhalis 1502 at a concentration of 32 ug/mL. Format: functional, organism-based.
In test [10] the test system is Staphylococcus aureus. The experiment in a line: Minimum inhibitory concentration against Staphylococcus aureus Oxford at a concentration of 32 ug/mL. Format: functional, organism-based.

Usually IC50 stands for the concentration at which inhibition is half-maximal. High values mean weaker potency, low ones greater potency. The Ki is the dissociation constant of the complex between target and ligand, obtained from inhibition or displacement. Low readings indicate higher affinity, high ones lower affinity.

Structures are written as SMILES. Converted amounts (≈) assume the structure as drawn. “And” between values parts separate entries of the source, which are not always exact repeats. Identical values can stand only once. The source made the active and inactive calls. The calls are words filed in the database; no cut-off is given here.

As to `O=C1OC[C@H]2c3c[nH]c4cccc(c34)S[C@@H]12`, the MIC was 16 µg/mL (≈ 69.2 µM) in test [1], 4 µg/mL (≈ 17.3 µM) in test [2] and 16 µg/mL (≈ 69.2 µM) in test [3]. Also, the 50% inhibitory concentration (IC50) in [4] was determined as 230 nM. On to `CC1c2c[nH]c3cccc(c23)SC1c1nnn[nH]1` (stereo unspecified), for which the IC50 entry in test [5] was “No inhibition”. Turning to `COC(=O)C1Sc2cccc3[nH]cc(c23)C1C` (stereo unspecified), the Activity result in test [6] was “No significant inhibition up to 20 uM concentration”. Consider `C[C@H]1c2c[nH]c3cccc(c23)S[C@H]1C(=O)O` [CHUANGXINMYCIN], for which the affinity in [7] corresponds to a Ki of 20 nM. Moreover, the concentration for half-maximal inhibition (IC50) in test [4] is 30 nM and 200 nM. `CC1c2c[nH]c3cccc(c23)SC1C=O` (stereo unspecified): the concentration for half-maximal inhibition (IC50) in [4] stood at 90 nM. Still for that read-out and setting: for `CC1c2c[nH]c3cccc(c23)SC1C#N` (stereo unspecified) the value was 1100 nM. Consider `CC1c2c[nH]c3cccc(c23)SC1C(N)=O` (stereo unspecified), for which, in [6], the Activity result was “No significant inhibition up to 20 uM concentration”. For `CC1c2c[nH]c3cccc(c23)SC1C(=O)NO` (stereo unspecified), the concentration for half-maximal inhibition (IC50) entry in test [5] is recorded as “No inhibition”.

Regarding `O=C([O-])[C@@H]1Sc2cccc3[nH]cc(c23)[C@@H]1CO.[Na+]`, the MIC result in test [8], in test [9] and in test [10] was “inactive” throughout. The 50% inhibitory concentration (IC50) entry in [5] is listed as “No inhibition”.
